{
  "source": "patent US20120071451A1",
  "about": "“METHOD OF TREATING NONALCOHOLIC STEATOHEPATITIS WITH ELEVATED DOSES OF URSODEOXYCHOLIC ACID” (Aptalis Pharma Canada Inc., priority 2009, published 2012)",
  "key": {"patients with NASH [1]": {"system": "patients with NASH", "conditions": "two years, 13-15 mg/kg/day; cited from earlier work"}, "adult patients with PSC": {"system": "adult patients with PSC", "conditions": "cited from earlier work"}, "patients with NASH [2]": {"system": "patients with NASH", "conditions": "15 mg/kg/day; cited from earlier work"}, "[3]": {"conditions": "cited from earlier work"}, "NASH patients": {"system": "NASH patients", "conditions": "one year, 13-15 mg/kg/day; cited from earlier work"}, "[4]": {"system": "patients with histologically proven NASH", "experiment": "Multicenter randomized double-blind placebo-controlled clinical study of 28-35 mg/kg/day UDCA for treating NASH", "format": "in vivo, human", "conditions": "for Normalization ALAT: percent pts with normalized ALAT at 12 months; for Normalization ASAT: percent pts with normalized ASAT at 12 months", "method": "A multicenter randomized double-blind placebo-controlled study was conducted to examine the efficacy and tolerability of 28-35 mg/kg/day UDCA in patients with histologically proven NASH, ALAT and/or ASAT greater than 50 IU/L. A total of 120 patients were planned to receive either UDCA or placebo for a period of 12 months. Treatment was administered with meals. During the study, liver biochemistry, tolerability and side effects were monitored regularly. During the study, overweight and obese patients were encouraged to lose weight by following a hypocaloric diet and to maintain a certain level of physical activity. Drug treatments taken by patients for associated medical conditions were allowed. At the end of the 12th month, patients underwent an end of study evaluation and study treatments were stopped.\nInclusion criteria: age of patients higher than 18 years; liver biopsy compatible with NASH: presence of steatosis >20% associated with hepatocyte ballooning and/or hepatic lobule necrosis during the last 18 months; ALAT or ASAT levels >50 IU/L at the screening visit (with at least 3 elevated transaminase levels in the last 12 months)\nExclusion criteria: hepatic biopsy done before the last 18 months; no more than one normal value of transaminases during the last 12 months; patient was treated by UDCA during the last 12 months; loss of weight of more than 15% between the time of the hepatic biopsy and the screening; alcohol consumption higher than 20 g/day for women or higher than 30 g/day for men; presence of other causes of hepatitis such as chronic hepatitis B or C, increased serum ferritin associated with homozygosity for the C282Y mutation, primary biliary cirrhosis, primary sclerosing cholangitis, well documented autoimmune hepatitis (specific autoantibody, hpergammaglobulinaemia, histology-compatible), alpha-1 anti-trypsin deficiency, Wilson's disease, HIV infection; secondary causes of NASH: long term amiodarone-induced NASH, corticotherapy, obesity surgery within the last 2 years, Tamoxifen® treatment; Child's B or Child's C grade cirrhosis; presence of liver carcinoma; currently treated or treated during the past three years of hepatic biopsy with rosilitazone or pioglitazone; treatment with vitamin E during the past six months before screening; pregnant or breastfeeding women; unavailable histology slides for reading by the central laboratory.\nDiscontinuation criteria: Subjects were free to discontinue the study at any time for any or for no reason, and without prejudice to further treatment. Patients who withdrew subsequent to the pre-study evaluations but before receiving any study medication were not considered dropouts and were not included in the database. Patients who were included in the study and received at least one dose of study medication were included in the database and considered part of the safety population. Patients who were included in the study and received a dose of study medication and for whom at least one post-baseline evaluation was available were analyzed as part of the Intent-to-Treat (ITT) population. Patients from the ITT population who completed the study without any major protocol violations were analyzed as part of the Per Protocol (PP) population.\nMain Endpoints: The primary endpoint was percent change in ALAT at 12 months vs. baseline. The secondary endpoints included: percent change in ASAT at 12 months vs. baseline; percent change Gamma-GT at 12 months vs. baseline; percent pts with normalized ALAT at 12 months; percent pts with normalized ASAT at 12 months; change in fibrosis index (FibroTest); change in inflammation index (Actitest); change in metabolic syndrome markers; and safety.\nFibroTest is a non-invasive blood test that provides a quantitative estimate of liver fibrosis and can be used to predict advanced fibrosis. ActiTest is a non-invasive blood test that is used to assess the activity of liver disease by measuring the degree of necrosis and inflammation. […]"}, "[5]": {"conditions": "by the end of the study, n=76, 28-30 mg/kg/day"}, "[6]": {"conditions": "28-35 mg/kg/day UDCA in NASH patients"}, "[7]": {"conditions": "mean change at 12 months vs. baseline, ITT, 30 mg/kg/day"}},
  "note": "“Also recorded” adds a separate entry of the source.",
  "data": [
    {"smiles": "C[C@H](CCC(=O)O)[C@H]1CC[C@H]2[C@@H]3[C@@H](O)C[C@@H]4C[C@H](O)CC[C@]4(C)[C@H]3CC[C@]12C", "note": "[UDCA, 3α, 7β-dihydroxy-5β-cholan-24-oic acid]", "values": [
      {"measurement": "Efficacy, UDCA treatment group versus placebo group", "setting": "patients with NASH [1]", "value": "did not show any differences"},
      {"measurement": "Risk of a primary endpoint versus placebo", "setting": "adult patients with PSC; adjusted for baseline stratification characteristics (p=0.011)", "value": 2.2, "unit": "times"},
      {"measurement": "Patients who had reached one of the pre-established clinical endpoints (number)", "setting": "adult patients with PSC; [5]", "value": 28, "unit": "patients"},
      {"measurement": "Patients who had reached one of the pre-established clinical endpoints (percent)", "setting": "adult patients with PSC; [5]", "value": 37, "unit": "%"},
      {"measurement": "Amount of decrease of ASAT and AP levels versus placebo", "setting": "adult patients with PSC; during therapy (p<0.01)", "value": "greater"},
      {"measurement": "Adjusted relative risk for death or transplantation", "setting": "adult patients with PSC; versus placebo (p=0.029)", "value": 3.3},
      {"measurement": "Serious adverse events", "setting": "adult patients with PSC; vs. 43% placebo, p=0.03", "value": 61, "unit": "%"},
      {"measurement": "ALAT and Gamma-GT levels", "setting": "patients with NASH [2]", "value": "significant reduction"},
      {"measurement": "Steatosis, necroinflammation, or fibrosis", "setting": "patients with NASH [2]", "value": "no improvements"},
      {"measurement": "Solubility in chloroform", "setting": "[3]; chloroform", "value": "slightly soluble"},
      {"measurement": "Solubility in ethanol", "setting": "[3]; ethanol", "value": "freely soluble"},
      {"measurement": "Solubility in ether", "setting": "[3]; ether", "value": "sparingly soluble"},
      {"measurement": "Solubility in glacial acetic acid", "setting": "[3]; glacial acetic acid", "value": "freely soluble"},
      {"measurement": "Solubility in intestinal fluids", "setting": "[3]; intestinal fluids, compared with water", "value": "more soluble"},
      {"measurement": "Solubility in water", "setting": "[3]; water", "value": "virtually insoluble; also recorded: practically insoluble"},
      {"measurement": "Fibrosis or inflammation", "setting": "NASH patients", "value": "did not change"},
      {"measurement": "Liver enzyme and steatosis levels", "setting": "NASH patients", "value": "improved"},
      {"measurement": "Asthenia and RUQP", "setting": "[4]; [6]", "value": "symptomatic improvement"},
      {"measurement": "Safety", "setting": "[4]; [6]", "value": "without any significant safety concerns"},
      {"measurement": "ActiTest (effect on liver inflammation) change vs. baseline, Mean", "setting": "[4]; ITT, at 6 months", "value": "−31.41", "unit": "%"},
      {"measurement": "FibroTest (effect on fibrosis) change vs. baseline, Mean", "setting": "[4]; ITT, at 6 months", "value": "−9.15", "unit": "%"},
      {"measurement": "ActiTest (effect on liver inflammation) change vs. baseline, Mean", "setting": "[4]; ITT, at 12 months", "value": "−30.97", "unit": "%"},
      {"measurement": "FibroTest (effect on fibrosis) change vs. baseline, Mean", "setting": "[4]; ITT, at 12 months", "value": "−8.11", "unit": "%"},
      {"measurement": "ActiTest (effect on liver inflammation) change vs. baseline, Mean", "setting": "[4]; PP, at 6 months", "value": "−31.23", "unit": "%"},
      {"measurement": "FibroTest (effect on fibrosis) change vs. baseline, Mean", "setting": "[4]; PP, at 6 months", "value": "−9.68", "unit": "%"},
      {"measurement": "ActiTest (effect on liver inflammation) change vs. baseline, Mean", "setting": "[4]; PP, at 12 months", "value": "−27.33", "unit": "%"},
      {"measurement": "FibroTest (effect on fibrosis) change vs. baseline, Mean", "setting": "[4]; PP, at 12 months", "value": "−5.40", "unit": "%"},
      {"measurement": "GI symptoms (diarrhea, abdominal pain, motility problems) frequency versus placebo group", "setting": "[4]; UDCA treatment group vs placebo group", "value": "−3", "unit": "×"},
      {"measurement": "Glycemia", "setting": "[4]; UDCA treatment group, increased in placebo group (p=0.023)", "value": "remained stable"},
      {"measurement": "HbA1c versus placebo", "setting": "[4]; at 6 and 12 months (p<0.05)", "value": "lower"},
      {"measurement": "Insulinemia versus placebo", "setting": "[4]; at 12 months (p=0.038)", "value": "lower"},
      {"measurement": "Fibrosis levels compared to placebo group", "setting": "[4]; both ITT and PP populations", "value": "significant improvement"},
      {"measurement": "Liver inflammation levels compared to placebo group", "setting": "[4]; both ITT and PP populations", "value": "significant improvement"},
      {"measurement": "Mild diarrhea, abdominal pain, and gastrointestinal motility disorders versus placebo group", "setting": "[4]; human, in vivo", "value": "more"},
      {"measurement": "Time of maximum effect, percent change from baseline ALAT", "setting": "[4]; human, in vivo", "value": 3, "unit": "months"},
      {"measurement": "Time of maximum effect, percent change from baseline ASAT", "setting": "[4]; human, in vivo", "value": 3, "unit": "months"},
      {"measurement": "Time of maximum effect, percent change from baseline in Gamma-GT", "setting": "[4]; human, in vivo", "value": 6, "unit": "months"},
      {"measurement": "Δ % ALAT (SD)", "setting": "[4]; [7]", "value": "−28±55", "unit": "%"},
      {"measurement": "Δ % ASAT (SD)", "setting": "[4]; [7]", "value": "−8±59", "unit": "%"},
      {"measurement": "Δ % Gamma-GT (SD)", "setting": "[4]; [7]", "value": "−51±28", "unit": "%"},
      {"measurement": "Individual effect on fibrosis: Fibrosis Decreased", "setting": "[4]; percent of patients", "value": 35.7, "unit": "%"},
      {"measurement": "Individual effect on fibrosis: Fibrosis Increased", "setting": "[4]; percent of patients", "value": 8.9, "unit": "%"},
      {"measurement": "Individual effect on fibrosis: Fibrosis Stable", "setting": "[4]; percent of patients", "value": 55.4, "unit": "%"},
      {"measurement": "Normalization ALAT", "setting": "[4]; ITT", "value": 25, "unit": "%"},
      {"measurement": "Normalization ALAT", "setting": "[4]; PPP", "value": 29, "unit": "%"},
      {"measurement": "Normalization ASAT", "setting": "[4]; ITT", "value": 32, "unit": "%"},
      {"measurement": "Normalization ASAT", "setting": "[4]; PPP", "value": 36, "unit": "%"}
    ]}
  ]
}
